Measured values taken from ChEMBL document CHEMBL1201862, “PubChem BioAssay data set” (2004).
“And” between values parts separate entries of the source, which are not always exact repeats. Identical values can stand only once.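 48-hour exposure; five concentrations; linearly interpolated endpoints. GI50: concentration for 50% inhibition of growth.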 The source made the active and inactive calls. No stated cut-off is given here; in the data, active = GI50 up to about 1.1 µM and inactive = higher.

Legend:
Experiment in all cases: NCI-60 cell line screen, 48 h
786-0 = test system: 786-0
SK-MEL-2 = test system: SK-MEL-2
UACC-62 = test system: UACC-62
SNB-75 = test system: SNB-75
OVCAR-3 = test system: OVCAR-3
COLO 205 = test system: COLO 205
SNB-19 = test system: SNB-19
ACHN = test system: ACHN
HL-60 = test system: HL-60
CCRF-CEM = test system: CCRF-CEM
RPMI-8226 = test system: RPMI-8226
PC-3 = test system: PC-3
SK-MEL-28 = test system: SK-MEL-28
HCT-15 = test system: HCT-15
K562 = test system: K562
NCI-H460 = test system: NCI-H460
LOX IMVI = test system: LOX IMVI
T47D = test system: T47D
DU-145 = test system: DU-145
A498 = test system: A498

Row | Structure (SMILES) | GI50 (786-0) | GI50 (SK-MEL-2) | GI50 (UACC-62) | GI50 (SNB-75) | GI50 (OVCAR-3) | GI50 (COLO 205) | GI50 (SNB-19) | GI50 (ACHN) | GI50 (HL-60) | GI50 (CCRF-CEM) | GI50 (RPMI-8226) | GI50 (PC-3) | GI50 (SK-MEL-28) | GI50 (HCT-15) | GI50 (K562) | GI50 (NCI-H460) | GI50 (LOX IMVI) | GI50 (T47D) | GI50 (DU-145) | GI50 (A498)
1 | O=S(=O)(O)c1ccc(/N=N/c2ccc(/N=N/c3c(O)ccc4cc(S(=O)(=O)O)ccc34)cc2)cc1 | > 100 µM (inactive) | > 100 µM (inactive) | > 100 µM (inactive) | > 100 µM (inactive) | > 100 µM (inactive) | > 100 µM (inactive) | > 100 µM (inactive) | > 100 µM (inactive) | > 100 µM (inactive) | > 100 µM (inactive) | > 100 µM (inactive) | > 100 µM (inactive) | > 100 µM (inactive) | > 100 µM | > 100 µM (inactive) | > 100 µM (inactive) | – | – | – | –
2 | NC1=NC(=O)/C(=C2\CCNC(=O)c3[nH]c(Br)cc32)N1 [HYMENIALDISINE] | 27.5 µM (inactive) | – | 13.4 µM (inactive) and 9.62 µM (inactive) | 34.8 µM (inactive) and 40 µM (inactive) | – | – | 39.1 µM (inactive) and 48.2 µM (inactive) | 45.3 µM (inactive) | 1.6 µM (inactive) and 1.66 µM (inactive) | 2.43 µM (inactive) and 2.9 µM (inactive) | – | 56.6 µM (inactive) | 7.74 µM (inactive) and 13.8 µM (inactive) | 29.7 µM and 42.5 µM | 3.85 µM (inactive) and 4.1 µM (inactive) | 65.6 µM (inactive) | 4.89 µM (inactive) and 4.57 µM (inactive) | 7.87 µM (inactive) | 39.6 µM (inactive) | –
3 | COc1ccc(Cn2c(=O)c(OC)c(C)c3cc4ccccc4cc32)cc1 | 33 µM (inactive) | 17.2 µM (inactive) | 13.2 µM (inactive) | 32.1 µM (inactive) | 19.9 µM (inactive) | 20.1 µM (inactive) | 48.1 µM (inactive) | 34.6 µM (inactive) | 20 µM (inactive) | 23.3 µM (inactive) | – | 16.1 µM (inactive) | 94.6 µM (inactive) | 27 µM | 28.3 µM (inactive) | 17.3 µM (inactive) | 18.4 µM (inactive) | 33.6 µM (inactive) | 35.2 µM (inactive) | –
4 | COC(=O)c1cc(C(=CCC[C@H]2CC[C@@]3(C)C(CCC4C3CC[C@@]3(C)C4CC[C@@H]3C(C)CCCC(C)C)C2)c2cc(Cl)c(O)c(C(=O)OC)c2)cc(Cl)c1O (some centres undefined) | > 10 µM (inactive) | > 10 µM (inactive) | > 10 µM (inactive) | > 10 µM (inactive) | > 10 µM (inactive) | > 10 µM (inactive) | > 10 µM (inactive) | > 10 µM (inactive) | > 10 µM (inactive) | > 10 µM (inactive) | > 10 µM (inactive) | > 10 µM (inactive) | > 10 µM (inactive) | > 10 µM | > 10 µM (inactive) | > 10 µM (inactive) | > 10 µM (inactive) | > 10 µM (inactive) | > 10 µM (inactive) | –
5 | O=C(O)c1ccc(C(O)(c2ccccc2)c2ccccc2)cc1 | > 100 µM (inactive) | – | > 100 µM (inactive) | – | > 100 µM (inactive) | > 100 µM (inactive) | > 100 µM (inactive) | > 100 µM (inactive) | > 100 µM (inactive) | > 100 µM (inactive) | > 100 µM (inactive) | > 100 µM (inactive) | > 100 µM (inactive) | > 100 µM | > 100 µM (inactive) | – | > 100 µM (inactive) | > 100 µM (inactive) | > 100 µM (inactive) | –
6 | CN(C)c1nc2oc(-c3ccccc3)c(-c3ccccc3)c2c2nncn12 | > 100 µM (inactive) | – | > 100 µM (inactive) | 53.5 µM (inactive) | – | > 100 µM (inactive) | > 100 µM (inactive) | > 100 µM (inactive) | – | > 100 µM (inactive) | > 100 µM (inactive) | – | > 100 µM (inactive) | > 100 µM | > 100 µM (inactive) | – | > 100 µM (inactive) | > 100 µM (inactive) | > 100 µM (inactive) | > 100 µM (inactive)
7 | COc1ccc(OC(C)C(=O)O)c2c1CCCC2=O (centres undefined) | > 100 µM (inactive) | > 100 µM (inactive) | > 100 µM (inactive) | > 100 µM (inactive) | > 100 µM (inactive) | > 100 µM (inactive) | > 100 µM (inactive) | > 100 µM (inactive) | > 100 µM (inactive) | > 100 µM (inactive) | > 100 µM (inactive) | – | > 100 µM (inactive) | > 100 µM | > 100 µM (inactive) | > 100 µM (inactive) | > 100 µM (inactive) | – | – | > 100 µM (inactive)
8 | CSC1=C(C(=O)Nc2ccc(C)cc2)C(N)=NC1=O | > 100 µM (inactive) | – | > 100 µM (inactive) | > 100 µM (inactive) | – | > 100 µM (inactive) | > 100 µM (inactive) | > 100 µM (inactive) | > 100 µM (inactive) | > 100 µM (inactive) | > 100 µM (inactive) | – | > 100 µM (inactive) | > 100 µM | > 100 µM (inactive) | > 100 µM (inactive) | > 100 µM (inactive) | > 100 µM (inactive) | > 100 µM (inactive) | –
9 | Cc1ccc(S[C@@H](C)[C@@](O)(C(N)=O)c2ccccc2)cc1 | 72.6 µM (inactive) | 39.4 µM (inactive) | 40.3 µM (inactive) | > 100 µM (inactive) | > 100 µM (inactive) | 34.4 µM (inactive) | > 100 µM (inactive) | 68.5 µM (inactive) | 37.3 µM (inactive) | 7.67 µM (inactive) | 21.7 µM (inactive) | 35.4 µM (inactive) | > 100 µM (inactive) | 84.3 µM | 15 µM (inactive) | 85.1 µM (inactive) | 14.7 µM (inactive) | 26.7 µM (inactive) | 72.9 µM (inactive) | –
10 | CC(C)(Oc1ccc(/C=C/C(=O)c2ccccc2)cc1)C(=O)Nc1c(Cl)cccc1Cl | > 10 µM (inactive) | > 10 µM (inactive) | > 10 µM (inactive) | > 10 µM (inactive) | 6.95 µM (inactive) | > 10 µM (inactive) | > 10 µM (inactive) | > 10 µM (inactive) | 14.7 µM (inactive) | 15 µM (inactive) | > 10 µM (inactive) | – | > 10 µM (inactive) | > 10 µM | 17 µM (inactive) | > 10 µM (inactive) | > 10 µM (inactive) | – | – | 0.524 µM (active)
11 | CN(CC(=O)O)Cc1c[nH]c2ccccc12 | > 100 µM (inactive) | > 100 µM (inactive) | > 100 µM (inactive) | > 100 µM (inactive) | > 100 µM (inactive) | > 100 µM (inactive) | > 100 µM (inactive) | > 100 µM (inactive) | > 100 µM (inactive) | > 100 µM (inactive) | > 100 µM (inactive) | > 100 µM (inactive) | > 100 µM (inactive) | > 100 µM | > 100 µM (inactive) | > 100 µM (inactive) | > 100 µM (inactive) | – | > 100 µM (inactive) | > 100 µM (inactive)
12 | O=c1c(Nc2ccccc2)cn(CCOc2ccccc2)c(=O)n1CCOc1ccccc1 | 28.2 µM (inactive) | – | 41.2 µM (inactive) | – | 35.9 µM (inactive) | 69.3 µM (inactive) | 31.5 µM (inactive) | 37.7 µM (inactive) | > 100 µM (inactive) | > 100 µM (inactive) | > 100 µM (inactive) | 34.8 µM (inactive) | > 100 µM (inactive) | > 100 µM | > 100 µM (inactive) | > 100 µM (inactive) | > 100 µM (inactive) | – | 53 µM (inactive) | > 100 µM (inactive)
13 | c1ccc2c(c1)ncn2C1CCCCO1 (centres undefined) | > 100 µM (inactive) | > 100 µM (inactive) | > 100 µM (inactive) | > 100 µM (inactive) | > 100 µM (inactive) | > 100 µM (inactive) | > 100 µM (inactive) | > 100 µM (inactive) | > 100 µM (inactive) | > 100 µM (inactive) | > 100 µM (inactive) | > 100 µM (inactive) | > 100 µM (inactive) | > 100 µM | > 100 µM (inactive) | – | > 100 µM (inactive) | > 100 µM (inactive) | > 100 µM (inactive) | –
14 | COc1ccc(-c2c(C3=NCCCN3)nnn2-c2ccc([N+](=O)[O-])cc2)cc1 | > 100 µM (inactive) | > 100 µM (inactive) | > 100 µM (inactive) | > 100 µM (inactive) | > 100 µM (inactive) | > 100 µM (inactive) | > 100 µM (inactive) | > 100 µM (inactive) | > 100 µM (inactive) | > 100 µM (inactive) | > 100 µM (inactive) | – | > 100 µM (inactive) | > 100 µM | > 100 µM (inactive) | > 100 µM (inactive) | > 100 µM (inactive) | – | – | > 100 µM (inactive)
15 | Cc1ccc(S(=O)(=O)Nn2c(C)cc3ccc(S(=O)(=O)Nc4ccccc4[N+](=O)[O-])cc3c2=O)cc1 | > 100 µM (inactive) | 39.4 µM (inactive) | 38.9 µM (inactive) | > 100 µM (inactive) | 74.1 µM (inactive) | 18.6 µM (inactive) | > 100 µM (inactive) | > 100 µM (inactive) | > 100 µM (inactive) | > 100 µM (inactive) | 62.8 µM (inactive) | 31.6 µM (inactive) | > 100 µM (inactive) | > 100 µM | 3.85 µM (inactive) | 77.3 µM (inactive) | > 100 µM (inactive) | – | > 100 µM (inactive) | –
16 | CCCCCCC(=O)CC(=O)C(=O)Nc1ccccc1C | > 55.5 µM (inactive) | > 100 µM (inactive) | > 100 µM (inactive) | > 100 µM (inactive) | > 100 µM (inactive) | > 57.1 µM (inactive) | > 100 µM (inactive) | > 100 µM (inactive) | > 100 µM (inactive) | > 100 µM (inactive) | > 100 µM (inactive) | – | > 100 µM (inactive) | > 44.4 µM | > 100 µM (inactive) | > 51.1 µM (inactive) | > 43 µM (inactive) | – | – | > 100 µM (inactive)
